Consider twelve compounds from US9499550B2 (BRISTOL-MYERS SQUIBB COMPANY, priority 2012, dated 2016).

Where two headings read alike, the source gives them in different places.

Experiment [1] concerns HCV genotype 1a (H77 strain) replicon in HUH-7 cells. Description: HCV replicon luciferase reporter assay, genotype 1a. It counts as cell-based. As to conditions: Hepatitis C virus, Huh-7, 72 h, HCV genotype 1a replicon luciferase assay, 3 days incubation. A digest of the protocol: (§1)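 Replicon inhibition for both genotypes was measured as Renilla luciferase signal (EnduRen, 7.5 μM final, 2 h) after 3-day, 37° C exposure of replicon-bearing HUH-7 cells in 4% FCS DMEM, 0.5% DMSO. The 1b construct carries S1179I; the 1a H77 construct carries P1496L and S2204I. Twenty-point, 3-fold dilutions were fitted four-parametrically for EC50, and CC50 was taken from multiplexed Cell Titer-Blue.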
A general note: A replicon is a self-replicating genome or part of one, used to study replication in cells.

The subject of experiment [2] is HCV genotype 1b (Con1) replicon in HUH-7 cells. As to the kind of experiment: HCV replicon luciferase reporter assay, genotype 1b. The experiment is classed as cell-based. Conditions: Hepatitis C virus, Huh-7, 72 h, HCV genotype 1b replicon luciferase assay, 3 days incubation. A digest of the protocol: as §1
Where [3] appears, read: range class, read-out: LE_1a (EC50, range).
The mark [4] stands for this setting: range class, read-out: LE_1b (EC50, range).

Consider `COCCn1nc(O[C@@H]2C[C@H]3C(=O)N[C@]4(C(=O)NS(=O)(=O)C5(C)CC5)C[C@H]4/C=C\CC[C@@H](C)C[C@@H](C)[C@H](NC(=O)OC(C)(C)C)C(=O)N3C2)c2ccccc2c1=O` [Compound 1006, tert-butyl ((2R,6S,7R,9R,13aS,14aR,16aS,Z)-2-((3-(2-methoxyethyl)-4-oxo-3,4-dihydrophthalazin-1-yl)oxy)-7,9-dimethyl-14a-(((1-methylcyclopropyl)sulfonyl)carbamoyl)-5,16-dioxo-1,2,3,5,6,7,8,9,10,11,13a,14,14a,15,16,16a-hexadecahydrocyclopropa[e]pyrrolo[1,2-a][1,4]diazacyclopentadecin-6-yl)carbamate], for which the 50% effective concentration (EC50) in experiment [1] (setting [3]) and in experiment [2] (setting [4]) was 4.82 to 103 nM each time.

`COCCn1nc(O[C@@H]2C[C@H]3C(=O)N[C@]4(C(=O)NS(=O)(=O)C5CC5)C[C@H]4/C=C\CC[C@H](C)C[C@@H](C)[C@H](NC(=O)OC(C)(C)C)C(=O)N3C2)c2ccccc2c1=O` [Compound 1007, tert-butyl ((2R,6S,7R,9S,13aS,14aR,16aS,Z)-14a-((cyclopropylsulfonyl)carbamoyl)-2-((3-(2-methoxyethyl)-4-oxo-3,4-dihydrophthalazin-1-yl)oxy)-7,9-dimethyl-5,16-dioxo-1,2,3,5,6,7,8,9,10,11,13a,14,14a,15,16,16a-hexadecahydrocyclopropa[e]pyrrolo[1,2-a][1,4]diazacyclopentadecin-6-yl)carbamate]: the EC50 (commonly the midpoint of the concentration-response curve) was greater than 87.4 nM in experiment [1] (setting [3]), no less than 1000 nM in experiment [1] (read-out: LE_1a (EC50)), greater than 87.4 nM in experiment [2] (setting [4]) and 438 nM in experiment [2] (read-out: LE_1b (EC50)).

Consider `COCCn1nc(O[C@@H]2C[C@H]3C(=O)N[C@]4(C(=O)NS(=O)(=O)C5CC5)C[C@H]4/C=C\CC[C@@H](C)C[C@@H](C)[C@H](NC(=O)OC(C)(C)C)C(=O)N3C2)c2ccccc2c1=O` [Compound 1008, tert-butyl ((2R,6S,7R,9R,13aS,14aR,16aS,Z)-14a-((cyclopropylsulfonyl)carbamoyl)-2-((3-(2-methoxyethyl)-4-oxo-3,4-dihydrophthalazin-1-yl)oxy)-7,9-dimethyl-5,16-dioxo-1,2,3,5,6,7,8,9,10,11,13a,14,14a,15,16,16a-hexadecahydrocyclopropa[e]pyrrolo[1,2-a][1,4]diazacyclopentadecin-6-yl)carbamate], for which the EC50 in experiment [1] (setting [3]) and in experiment [2] (setting [4]) was 4.82 to 103 nM in each case.

Consider `CC(C)n1nc(O[C@@H]2C[C@H]3C(=O)N[C@]4(C(=O)NS(=O)(=O)C5CC5)C[C@H]4/C=C\CC[C@H](C)C[C@@H](C)[C@H](NC(=O)OC(C)(C)C(F)(F)F)C(=O)N3C2)c2ccccc2c1=O` [Compound 1009, 1,1,1-trifluoro-2-methylpropan-2-yl((2R,6S,7R,9S,13aS,14aR,16aS,Z)-14a-((cyclopropylsulfonyl)carbamoyl)-2-((3-isopropyl-4-oxo-3,4-dihydrophthalazin-1-yl)oxy)-7,9-dimethyl-5,16-dioxo-1,2,3,5,6,7,8,9,10,11,13a,14,14a,15,16,16a-hexadecahydrocyclopropa[e]pyrrolo[1,2-a][1,4]diazacyclopentadecin-6-yl)carbamate], for which the EC50 in experiment [1] (setting [3]) and in experiment [2] (setting [4]) was greater than 87.4 nM throughout.

On to `CC(C)n1nc(O[C@@H]2C[C@H]3C(=O)N[C@]4(C(=O)NS(=O)(=O)C5CC5)C[C@H]4/C=C\CC[C@@H](C)C[C@@H](C)[C@H](NC(=O)OC(C)(C)C(F)(F)F)C(=O)N3C2)c2ccccc2c1=O` [Compound 1010, 1,1,1-trifluoro-2-methylpropan-2-yl((2R,6S,7R,9R,13aS,14aR,16aS,Z)-14a-((cyclopropylsulfonyl)carbamoyl)-2-((3-isopropyl-4-oxo-3,4-dihydrophthalazin-1-yl)oxy)-7,9-dimethyl-5,16-dioxo-1,2,3,5,6,7,8,9,10,11,13a,14,14a,15,16,16a-hexadecahydrocyclopropa[e]pyrrolo[1,2-a][1,4]diazacyclopentadecin-6-yl)carbamate], for which the EC50 in experiment [1] (setting [3]) and in experiment [2] (setting [4]) was 4.82 to 103 nM in each case.

For `CC(C)n1nc(O[C@@H]2C[C@H]3C(=O)N[C@]4(C(=O)NS(=O)(=O)C5(C)CC5)C[C@H]4/C=C\CC[C@H](C)C[C@@H](C)[C@H](NC(=O)OC(C)(C)C(F)(F)F)C(=O)N3C2)c2ccccc2c1=O` [Compound 1011, 1,1,1-trifluoro-2-methylpropan-2-yl((2R,6S,7R,9S,13aS,14aR,16aS,Z)-2-((3-isopropyl-4-oxo-3,4-dihydrophthalazin-1-yl)oxy)-7,9-dimethyl-14a-(((1-methylcyclopropyl)sulfonyl)carbamoyl)-5,16-dioxo-1,2,3,5,6,7,8,9,10,11,13a,14,14a,15,16,16a-hexadecahydrocyclopropa[e]pyrrolo[1,2-a][1,4]diazacyclopentadecin-6-yl)carbamate], the EC50 in experiment [1] (setting [3]) was greater than 87.4 nM; in experiment [1] (read-out: LE_1a (EC50)) it was no less than 1000 nM; in experiment [2] (setting [4]), greater than 87.4 nM; in experiment [2] (read-out: LE_1b (EC50)), 362 nM.

`CC(C)n1nc(O[C@@H]2C[C@H]3C(=O)N[C@]4(C(=O)NS(=O)(=O)C5(C)CC5)C[C@H]4/C=C\CC[C@@H](C)C[C@@H](C)[C@H](NC(=O)OC(C)(C)C(F)(F)F)C(=O)N3C2)c2ccccc2c1=O` [Compound 1012, 1,1,1-trifluoro-2-methylpropan-2-yl((2R,6S,7R,9R,13aS,14aR,16aS,Z)-2-((3-isopropyl-4-oxo-3,4-dihydrophthalazin-1-yl)oxy)-7,9-dimethyl-14a-(((1-methylcyclopropyl)sulfonyl)carbamoyl)-5,16-dioxo-1,2,3,5,6,7,8,9,10,11,13a,14,14a,15,16,16a-hexadecahydrocyclopropa[e]pyrrolo[1,2-a][1,4]diazacyclopentadecin-6-yl)carbamate]: the EC50 in experiment [1] (setting [3]) and in experiment [2] (setting [4]) was 4.82 to 103 nM each time.

Consider `COCCn1nc(O[C@@H]2C[C@H]3C(=O)N[C@]4(C(=O)NS(=O)(=O)C5(C)CC5)C[C@H]4/C=C\CC[C@@H](C)C[C@@H](C)[C@H](NC(=O)OC(C)(C)C(F)(F)F)C(=O)N3C2)c2ccccc2c1=O` [Compound 1014, 1,1,1-trifluoro-2-methylpropan-2-yl((2R,6S,7R,9R,13aS,14aR,16aS,Z)-2-((3-(2-methoxyethyl)-4-oxo-3,4-dihydrophthalazin-1-yl)oxy)-7,9-dimethyl-14a-(((1-methylcyclopropyl)sulfonyl)carbamoyl)-5,16-dioxo-1,2,3,5,6,7,8,9,10,11,13a,14,14a,15,16,16a-hexadecahydrocyclopropa[e]pyrrolo[1,2-a][1,4]diazacyclopentadecin-6-yl)carbamate], for which the EC50 in experiment [1] (setting [3]) and in experiment [2] (setting [4]) was 4.82 to 103 nM each time.

On to `CC(C)n1nc(O[C@@H]2C[C@H]3C(=O)N[C@]4(C(=O)NS(=O)(=O)C5(C)CC5)C[C@H]4/C=C\CC[C@H](C)C[C@@H](C)[C@H](NC(=O)OC(C)(C)C(C)(F)F)C(=O)N3C2)c2ccccc2c1=O` [Compound 1015, 3,3-difluoro-2-methylbutan-2-yl((2R,6S,7R,9S,13aS,14aR,16aS,Z)-2-((3-isopropyl-4-oxo-3,4-dihydrophthalazin-1-yl)oxy)-7,9-dimethyl-14a-(((1-methylcyclopropyl)sulfonyl)carbamoyl)-5,16-dioxo-1,2,3,5,6,7,8,9,10,11,13a,14,14a,15,16,16a-hexadecahydrocyclopropa[e]pyrrolo[1,2-a][1,4]diazacyclopentadecin-6-yl)carbamate], for which the half-maximal effective concentration (EC50) in experiment [1] (setting [3]) and in experiment [2] (setting [4]) was greater than 87.4 nM throughout.

Regarding `CC(C)n1nc(O[C@@H]2C[C@H]3C(=O)N[C@]4(C(=O)NS(=O)(=O)C5(C)CC5)C[C@H]4/C=C\CC[C@@H](C)C[C@@H](C)[C@H](NC(=O)OC(C)(C)C(C)(F)F)C(=O)N3C2)c2ccccc2c1=O` [Compound 1016, 3,3-difluoro-2-methylbutan-2-yl((2R,6S,7R,9R,13aS,14aR,16aS,Z)-2-((3-isopropyl-4-oxo-3,4-dihydrophthalazin-1-yl)oxy)-7,9-dimethyl-14a-(((1-methylcyclopropyl)sulfonyl)carbamoyl)-5,16-dioxo-1,2,3,5,6,7,8,9,10,11,13a,14,14a,15,16,16a-hexadecahydrocyclopropa[e]pyrrolo[1,2-a][1,4]diazacyclopentadecin-6-yl)carbamate], the EC50 in experiment [1] (setting [3]) and in experiment [2] (setting [4]) was 4.82 to 103 nM each time.

On to `CC(C)n1nc(O[C@@H]2C[C@H]3C(=O)N[C@]4(C(=O)NS(=O)(=O)C5CC5)C[C@H]4/C=C\CC[C@H](C)C[C@@H](C)[C@H](NC(=O)OC(C)(C)C(C)(F)F)C(=O)N3C2)c2ccccc2c1=O` [Compound 1017, 3,3-difluoro-2-methylbutan-2-yl((2R,6S,7R,9S,13aS,14aR,16aS,Z)-14a-((cyclopropylsulfonyl)carbamoyl)-2-((3-isopropyl-4-oxo-3,4-dihydrophthalazin-1-yl)oxy)-7,9-dimethyl-5,16-dioxo-1,2,3,5,6,7,8,9,10,11,13a,14,14a,15,16,16a-hexadecahydrocyclopropa[e]pyrrolo[1,2-a][1,4]diazacyclopentadecin-6-yl)carbamate], for which the EC50 in experiment [1] (setting [3]) and in experiment [2] (setting [4]) was greater than 87.4 nM in each case.

`CC(C)n1nc(O[C@@H]2C[C@H]3C(=O)N[C@]4(C(=O)NS(=O)(=O)C5CC5)C[C@H]4/C=C\CC[C@@H](C)C[C@@H](C)[C@H](NC(=O)OC(C)(C)C(C)(F)F)C(=O)N3C2)c2ccccc2c1=O` [Compound 1018, 3,3-difluoro-2-methylbutan-2-yl((2R,6S,7R,9R,13aS,14aR,16aS,Z)-14a-((cyclopropylsulfonyl)carbamoyl)-2-((3-isopropyl-4-oxo-3,4-dihydrophthalazin-1-yl)oxy)-7,9-dimethyl-5,16-dioxo-1,2,3,5,6,7,8,9,10,11,13a,14,14a,15,16,16a-hexadecahydrocyclopropa[e]pyrrolo[1,2-a][1,4]diazacyclopentadecin-6-yl)carbamate]: the EC50 in experiment [1] (setting [3]) and in experiment [2] (setting [4]) was 4.82 to 103 nM throughout.
